# Source: ChEMBL document CHEMBL3352361, “Design and synthesis of coumarin-3-acylamino derivatives to scavenge radicals and to protect DNA” (Eur J Med Chem, 2014)
# How the values were obtained:
# Assay type in all cases: physicochemical; call rule not given here
# [1] = Antioxidant activity assessed as inhibition time period for protection against AAPH-induced DNA oxidation at 37 degC by TBARS method
# [2] = Antioxidant activity assessed as protection against Cu2+/GSH-induced DNA oxidation at 150 uM up to 180 mins by TBARS method; conditions: 3 h
# [3] = Antioxidant activity assessed as OH-induced DNA oxidation at 150 uM by TBARS method
SMILES,Time [1],inhibition (INH) [2],Activity [3]
O=C(O)c1cc2ccc(O)cc2oc1=O,0.82 min,Active,78.8%
COc1cc2cc(C(=O)O)c(=O)oc2cc1O,2.92 min,Active,86.5%
O=C(NCCc1ccc(O)cc1)c1cc2ccccc2oc1=O,1.28 min,Not Active,76.4%
O=C(NCCc1ccccc1)c1cc2ccc(O)cc2oc1=O,,Not Active,75.3%
O=C(NCCc1ccc(O)cc1)c1cc2ccc(O)cc2oc1=O,,Not Active,71.5%
COc1cc2cc(C(=O)NCCc3ccccc3)c(=O)oc2cc1O,1.61 min,Not Active,73.6%
COc1cc2cc(C(=O)NCCc3ccc(O)cc3)c(=O)oc2cc1O,7.43 min,Not Active,68.1%
O=C(NCCc1ccccc1)c1cc2ccccc2oc1=O,,Active,72.9%
O=C(O)c1cc2ccccc2oc1=O [COUMARIN-3-CARBOXYLIC ACID],,Active,82.6%
